pKi: −log10 of the molar value. Like-named read-outs stand apart in the source and are kept apart here.
Assays:
[1] = tested on: glycerol-induced renal failure model; assay: renal-protecting effect (glycerol-induced renal failure model); type: in vivo; conditions: male Wistar rats; for suppression of increases of the serum creatinine and of urine-nitrogen: 0.01 - 10 mg/kg i.p., 24 hours after 50% glycerol s.c. (p < 0.05)
Method: A renal failure is a state wherein the renal function is lowered and the homeostasis of a body fluid can be no more maintained. It is known that an acute renal failure characteristic of uriniferous tubule disorder is caused by subcutaneous or intramuscular injection of glycerol to rats [Can. J. Physiol.
Male Wistar rats were kept deprived or water for 18 hours, and served for the test. A test compound was intraperitoneally administered to the rats (dosage: 1 mℓ/kg) and the rats were anesthetized with ether and 50% glycerol was subcutaneously administered (dosage: 0.8mℓ/100g) to the rats, pinching the dorsal skin. Twenty four hours after the administration of glycerol, the rats were anesthetized with ether and 5 mℓ of blood were collected from the abdominal aorta. The collected blood was allowed to stand for 30 minutes or longer and then centrifuged at 3,000 rpm for 10 minutes, and the amounts of the serum creatinine and urine-nitrogen (UN) contained in the serum were determined by auto analyzer (Olympus AU510) or measured by a creatinine test Wako (Jaffé method) and UN Test Wako (diacetylmonooxime direct method). Both are manufactured by Wako Pure Chemicals Co.
On the other hand, the left kidneys of the blood-sampled rats were removed and placed in formalin-filled vial bottles, and used as samples for the pathological examination.

Wistar rats = assay: diuretic effect; type: in vivo; conditions: urine collected for 6 hours; for Increase in K⁺ excretion (%) / Increase in Na⁺excretion (%) / Increase in Urine (%): relative to control; for Na⁺/K⁺: relative value of control (control 1.00)
Method: Wistar rats (male: 150 - 300 g) were starved for 18 hours prior to the administration of the test compounds. […] Urine was collected for 6 hours after the administration. Urine volume was measured and the electrolytes (Na+ and K+) in the urine were determined with a flame photome[…], Hitachi Ltd., Japan). All parameters are expressed as relative values of control.

male dd-strain mice = assay: acute toxicity test; type: in vivo
Method: […]. The Minimum lethal dose (MLD) of the compounds was determined by observing whether or not the mice were alive after 7 days of the administration.

A₂ receptor = biological target: T1, A₂ receptor (Rattus norvegicus, UniProt P30543); assay: Adenosine A2 receptor binding (3H-NECA binding); conditions: for inhibition at 10 µM / inhibition at 100 µM: read-out: A₂ Receptor Inhibition (%)
T1 construct: A precipitate was prepared from rat corpus striatum; from tissue; host or cells: rat corpus striatum membrane preparation
Method: A precipitate was prepared from rat corpus striatum in a similar manner as in 1) above. The precipitate was suspended by adding a 50 mM Tris HCl buffer containing 10 mM magnesium chloride and 0.02 unit/mg (tissue) of adenosine deaminase (manufactured by Sigma Co.) to adjust the concentration of tissue to 5 mg (wet weight)/mℓ.
The mixture was incubated at 25°C within 120 minutes. The resulting mixture was treated in the same manner as in 1) above to determine its radioactivity.
The inhibition rate of the test compound against the binding of A₂ receptor (³H-NECA binding) was calculated from the following equation: [formula]

Adenosine A₁ Receptor = biological target: T2, Adenosine A₁ Receptor (Cavia porcellus, UniProt P47745); assay: Adenosine A1 receptor binding (3H-CHA binding); set-up: species or system guinea pig; conditions: for Ratio of Ki Values [A₂/A₁]: A₂ Ki (rat corpus striatum) / A₁ Ki (guinea pig cerebrum); for pKi: calculated from Cheng-Prusoff's equation, ³H-CHA; for pKi / inhibition at 100 µM / inhibition at 10 µM: guinea pig cerebrum; for inhibition at 100 µM: concentration of tested compound 10⁻⁴ M; for inhibition at 100 µM / inhibition at 10 µM: ³H-CHA 1.1 nM; for inhibition at 10 µM: concentration of tested compound 10⁻⁵ M
T2 construct: from tissue; host or cells: guinea pig cerebrum membrane preparation
T2 sequence (P47745 1-326): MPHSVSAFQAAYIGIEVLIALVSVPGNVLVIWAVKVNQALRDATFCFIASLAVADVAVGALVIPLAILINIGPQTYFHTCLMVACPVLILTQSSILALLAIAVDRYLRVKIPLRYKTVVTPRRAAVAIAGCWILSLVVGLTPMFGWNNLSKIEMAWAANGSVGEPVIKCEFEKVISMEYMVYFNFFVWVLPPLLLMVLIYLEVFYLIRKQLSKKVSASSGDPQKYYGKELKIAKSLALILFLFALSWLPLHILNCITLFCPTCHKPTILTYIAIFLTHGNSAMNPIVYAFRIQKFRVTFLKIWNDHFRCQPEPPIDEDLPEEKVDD
Method: Cerebrum of a guinea pig was suspended into ice cooled 50 mM tris hydroxymethyl aminomethane hydrochloride (Tris HCl) buffer (pH = 7.7), by using Polytron homogenizer (manufactured by Kinematica Co.). The suspension was centrifuged (50,000 x g, 10 minutes), and the precipitate was resuspended by adding the same volume of 50 mM Tris HCl buffer. The suspension was centrifuged under the same conditions, and the precipitate obtained was suspended once again by adding 10 volumes of 50 mM Tris HCl. The tissue suspension was incubated at 37°C for 30 minutes in the presence of 0.02 units/mg tissue of adenosine deaminase (manufactured by Sigma Co.). The resulting tissue suspension was recentrifuged (50,000 x g, 10 minutes), and 50 mM Tris HCl was added to the precipitate to adjust the concentration of tissue to 10 mg (wet weight)/mℓ.
The mixture was incubated at 25°C for 90 minutes, and the resulting reaction was stopped by rapid vacuum filtration through a glass fiber filter (GF/C manufactured by Whatman Co.) followed by immediately washing three times with 5 mℓ each of ice cold 50 mM Tris HCl buffer. […] Its radioactivity was then determined by a scintillation counter (manufactured by Packard Instrument Co.).
The inhibition rate of the test compounds against the binding of A₁ […] (³H-CHA binding) was calculated from the following equation: [formula]
• 1. […] The inhibition constant (Ki value) shown in the table was calculated from Cheng-Prusoff's equation.

[2] = ³H-NECA with CPA, rat corpus striatum, read-out: A₂ Receptor Ki
[3] = amount of the administration 6.25 mg.kg, oral
[4] = 300 mg/kg orally administered, male dd-strain mice, observed 7 days after administration

T1 sequence (P30543 whole entry): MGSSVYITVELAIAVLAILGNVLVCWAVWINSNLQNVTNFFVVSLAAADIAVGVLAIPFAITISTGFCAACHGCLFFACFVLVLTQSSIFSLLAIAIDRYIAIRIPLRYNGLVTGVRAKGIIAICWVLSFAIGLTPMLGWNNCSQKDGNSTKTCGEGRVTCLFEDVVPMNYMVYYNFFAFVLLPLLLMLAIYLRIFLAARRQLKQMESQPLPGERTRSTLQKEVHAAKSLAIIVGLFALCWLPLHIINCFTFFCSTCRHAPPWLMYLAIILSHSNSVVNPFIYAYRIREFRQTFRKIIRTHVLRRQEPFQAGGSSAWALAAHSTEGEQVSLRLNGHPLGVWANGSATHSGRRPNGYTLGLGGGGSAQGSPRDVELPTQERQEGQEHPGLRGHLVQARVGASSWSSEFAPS

## 8-[(1R*,2R*,5S*)-Bicyclo[2.2.1]heptan-2-yl]methyl-1,3-dipropylxanthine [Compound 16]
[1]
  suppression of increases of the serum creatinine and of urine-nitrogen: significantly suppressed
[1]; i.p., left kidney removed 24 hours after 50% glycerol s.c.
  pathological examination of removed kidneys: state of kidneys: significantly improved
Wistar rats; 25 mg/kg oral
  Increase in K⁺ excretion (%): 38%
  Increase in Na⁺excretion (%): 191%
  Increase in Urine (%): 141%
  Na⁺/K⁺: 2.12

## CCCn1c(=O)c2[nH]c([C@@H]3C[C@@H]4C=C[C@@H]3C4)nc2n(CCC)c1=O (relative stereo) [Compound 2, 8-[(1R*,4S*,5R*)-2-bicyclo[2.2.1]hepten-5-yl]-1,3-dipropylxanthine]
Wistar rats; 25 mg/kg oral
  Increase in K⁺ excretion (%): 67%
  Increase in Na⁺excretion (%): 109%
  Increase in Urine (%): 87%
  Na⁺/K⁺: 1.25
Male dd-strain mice; mouse, in vivo, 10080 min
  Minimum lethal dose (MLD): more than 300 mg/kg

## CCCn1c(=O)c2[nH]c([C@H]3CC[C@H]4CCC[C@H]43)nc2n(CCC)c1=O (relative stereo) [Compound 6, 8-[(1R*,2S*,5R*)-bicyclo[3.3.0]oxtan-2-yl]-1,3-dipropylxanthine]
A₂ receptor
  inhibition at 10 µM: 70%
  inhibition at 100 µM: 85%
A₂ receptor; [2]
  pKi: 6.25
Wistar rats; [3]
  Increase in K⁺ excretion (%): 87%
  Increase in Na⁺excretion (%): 252%
  Increase in Urine (%): 330%
  Na⁺/K⁺: 1.88
Adenosine A₁ Receptor
  Ratio of Ki Values [A₂/A₁]: 112
  pKi: 8.30
  inhibition at 100 µM: 101%
  inhibition at 10 µM: 100%

## CCCn1c(=O)c2c(nc([C@@H]3CC[C@H]4CCC[C@H]43)n2C)n(CCC)c1=O (relative stereo) [Compound 18, 8-[(1R*,2R*,5R*)-Bicyclo[3.3.0]octan-2-yl]-1,3-dipropyl-7-methylxanthine]
Male dd-strain mice; mouse, in vivo, 10080 min
  Minimum lethal dose (MLD): more than 300 mg/kg

## CCCn1c(=O)c2[nH]c([C@@H]3CC[C@H]4CCC[C@H]43)nc2n(CCC)c1=S (relative stereo) [Compound 24, 8-[(1R*,2R*,5R*)-Bicyclo[3.3.0]octan-2-yl]-1,3-dipropyl-2-thioxanthine]
Wistar rats; 25 mg/kg oral
  Increase in K⁺ excretion (%): 61%
  Increase in Na⁺excretion (%): 125%
  Increase in Urine (%): 112%
  Na⁺/K⁺: 1.40
Male dd-strain mice; [4]
  Minimum lethal dose (MLD): more than 300 mg/kg

## Cn1c(=O)c2[nH]cnc2n(C)c1=O [Aminophylline, reference compound]
[1]
  suppression of increases of the serum creatinine and of urine-nitrogen: weak effect
Wistar rats; 25 mg/kg oral
  Increase in K⁺ excretion (%): 17%
  Increase in Na⁺excretion (%): 89%
  Increase in Urine (%): 34%
  Na⁺/K⁺: 1.62

## Nc1nc2ccc(Cl)cc2c2nc(-c3ccco3)nn12 [CGS 15943, reference compound]
A₂ receptor
  pKi: 9.14
  inhibition at 10 µM: 99%
  inhibition at 100 µM: 97%

## CCCn1c(=O)c2nc(C3CC4CCC3C4)[nH]c2n(CCC)c1=O (stereo not drawn) [Compound 4, 8-[(1R*,2R*,5S*)-bicyclo[2.2.1)heptan-2-yl]-1,3-dipropylxanthine]
Wistar rats; 25 mg/kg oral
  Increase in K⁺ excretion (%): 27%
  Increase in Na⁺excretion (%): 106%
  Increase in Urine (%): 113%
  Na⁺/K⁺: 1.63
Male dd-strain mice; mouse, in vivo, 10080 min
  Minimum lethal dose (MLD): more than 300 mg/kg

## CCCn1c(=O)c2[nH]c(Cc3csc(N)n3)nc2n(CCC)c1=O [Compound 12, 8-(2-Aminothiazol-4-yl)methyl-1,3-dipropylxanthine]
Wistar rats; 25 mg/kg oral
  Increase in K⁺ excretion (%): 32%
  Increase in Na⁺excretion (%): 103%
  Increase in Urine (%): 108%
  Na⁺/K⁺: 1.54
Male dd-strain mice; [4]
  Minimum lethal dose (MLD): 300 mg/kg

## CCCn1c(=O)c2nc(CC34CC5CC(CC(C5)C3)C4)[nH]c2n(CCC)c1=O [Compound 15, 8-(Adamantan-1-yl)methyl-1,3-dipropylxanthine]
Male dd-strain mice; mouse, in vivo, 10080 min
  Minimum lethal dose (MLD): more than 300 mg/kg

## CCCn1c(=O)c2c(nc(C34CC5CC(CC3C5)C4)n2C)n(CCC)c1=O [Compound 20, 1,3-Dipropyl-7-methyl-8-(noradamantan-3-yl)xanthine]
Male dd-strain mice; [4]
  Minimum lethal dose (MLD): more than 300 mg/kg

## CCn1c(=O)c2[nH]c(C34CC5CC(CC3C5)C4)nc2n(CC)c1=O [Compound 28, 8-(Noradamantan-3-yl)-1,3-diethylxanthine]
A₂ receptor
  inhibition at 10 µM: 61%
  inhibition at 100 µM: 78%
A₂ receptor; [2]
  pKi: 6.03
Adenosine A₁ Receptor
  Ratio of Ki Values [A₂/A₁]: 132
  pKi: 8.15
  inhibition at 100 µM: 101%
  inhibition at 10 µM: 100%

## CCCCn1c(=O)c2[nH]c(C34CC5CC(CC3C5)C4)nc2n(CCCC)c1=O [Compound 29, 8-(Noradamantan-3-yl)-1,3-dibutylxanthine]
A₂ receptor
  inhibition at 10 µM: 72%
  inhibition at 100 µM: 78%
A₂ receptor; [2]
  pKi: 6.01
Wistar rats; 25 mg/kg oral
  Increase in K⁺ excretion (%): 65%
  Increase in Na⁺excretion (%): 137%
  Increase in Urine (%): 123%
  Na⁺/K⁺: 1.43
Adenosine A₁ Receptor
  Ratio of Ki Values [A₂/A₁]: 107
  pKi: 8.04
  inhibition at 100 µM: 100%
  inhibition at 10 µM: 100%

## CC(C)Cn1c(=O)n(C)c(=O)c2[nH]c(C34CC5CC(CC3C5)C4)nc21 [Compound 30, 8-(Noradamantan-3-yl)-3-isobutyl-1-methylxanthine]
Wistar rats; 25 mg/kg oral
  Increase in K⁺ excretion (%): 50%
  Increase in Na⁺excretion (%): 126%
  Increase in Urine (%): 112%
  Na⁺/K⁺: 1.50

## CCCn1c(=S)c2[nH]c(C34CC5CC(CC3C5)C4)nc2n(CCC)c1=O [Compound 32, 8-(Noradamantan-3-yl)-1,3-dipropyl-6-thioxanthine]
Wistar rats; 25 mg/kg oral
  Increase in K⁺ excretion (%): 41%
  Increase in Na⁺excretion (%): 114%
  Increase in Urine (%): 100%
  Na⁺/K⁺: 1.51
Male dd-strain mice; mouse, in vivo, 10080 min
  Minimum lethal dose (MLD): more than 300 mg/kg

## NS(=O)(=O)c1cc(C(=O)O)c(NCc2ccco2)cc1Cl [Furosemide, reference compound]
[1]; i.p., 24 hours after 50% glycerol s.c.
  effect on serum creatinine: showed a tendency to increase the serum creatinine
Wistar rats; 25 mg/kg oral
  Increase in Urine (%): 75%
  Na⁺/K⁺: 1.07

## CCCn1c(=O)c2[nH]c(-c3ccc(S(=O)(=O)N(C)CCN(C)C)cc3)nc2n(CCC)c1=O [PD 115199, reference compound]
[1]
  suppression of increases of the serum creatinine and of urine-nitrogen: totally ineffective
A₂ receptor
  inhibition at 10 µM: 94%
  inhibition at 100 µM: 98%
A₂ receptor; [2]
  pKi: 7.59
Adenosine A₁ Receptor
  Ratio of Ki Values [A₂/A₁]: 0.14
  pKi: 6.72
  inhibition at 100 µM: 100%
  inhibition at 10 µM: 97%

## CCCn1c(=O)c2[nH]c(-c3ccc(OCC(=O)NCCN)cc3)nc2n(CCC)c1=O [XAC, reference compound]
[1]
  suppression of increases of the serum creatinine and of urine-nitrogen: weak effect
